# Assay results as given in patent publication US20230135635A1, “INHIBITORS OF ULK1/2 AND METHODS OF USING SAME” (SALK INSTITUTE FOR BIOLOGICAL STUDIES, priority 2020, published 2023).
# Target: T1, recombinant human ULK1 protein (1-649) (Homo sapiens, UniProt O75385)
# T1 construct: recombinant human ULK1 protein (1-649, SignalChem #U01-11G); purchased SignalChem U01-11G
# T1 sequence (O75385 1-649): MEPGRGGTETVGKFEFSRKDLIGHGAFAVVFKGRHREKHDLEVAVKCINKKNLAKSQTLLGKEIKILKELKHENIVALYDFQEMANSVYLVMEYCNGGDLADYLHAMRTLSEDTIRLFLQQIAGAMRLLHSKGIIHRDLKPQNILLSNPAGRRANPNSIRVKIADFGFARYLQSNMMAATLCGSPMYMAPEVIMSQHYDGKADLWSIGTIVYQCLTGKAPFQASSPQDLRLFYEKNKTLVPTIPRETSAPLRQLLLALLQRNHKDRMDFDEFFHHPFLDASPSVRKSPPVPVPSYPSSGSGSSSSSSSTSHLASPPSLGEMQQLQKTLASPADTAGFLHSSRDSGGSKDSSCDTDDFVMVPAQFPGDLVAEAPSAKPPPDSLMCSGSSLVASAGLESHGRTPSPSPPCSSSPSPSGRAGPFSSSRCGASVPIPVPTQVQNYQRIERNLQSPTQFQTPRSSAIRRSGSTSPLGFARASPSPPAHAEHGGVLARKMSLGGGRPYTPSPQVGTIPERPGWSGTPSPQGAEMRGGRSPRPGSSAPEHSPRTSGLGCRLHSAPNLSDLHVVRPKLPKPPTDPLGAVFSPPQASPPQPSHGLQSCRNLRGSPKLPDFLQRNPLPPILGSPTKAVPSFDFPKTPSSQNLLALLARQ
# Test: ULK1 inhibition assay (ADP Glo)
# Assay type: biochemical
# Details: Table 1; 25 uM ATP, MBP substrate, one hour
# Description: Illustrative compounds of Formula I and related analogs are shown in Table 1 (along with their respective IC50 values for ULK1 inhibition assays). For ADP Glo assay, IC50s are represented nM, with A representing IC50<1 nM, B representing 10 nM>IC50>1 nM, and C representing IC50>10 nM. NT indicates the compound was not tested. ULK1 inhibition assays were performed in a 5 uL reaction volume containing 2 ug/mL recombinant human ULK1 protein (1-649, SignalChem #U01-11G) and 80 ug/mL myelin basic protein (MBP, Sigma-Aldrich #M1891) in the presence of 25 uM ATP (Sigma-Aldrich A7699). ULK 1 inhibition was assessed after one hour. Compounds were tested in triplicate in a 16-dose IC50 mode with 3-fold serial dilution and a starting dose of 30 uM. Staurosporine, a non-selective protein kinase inhibitor, was used in the assay as a positive control.
# According to another embodiment, the present disclosure provides methods of producing the above-defined compounds. The compounds may be synthesized using any suitable techniques. Advantageously, these compounds are conveniently synthesized from readily available starting materials. Synthetic chemistry transformations and methodologies useful in synthesizing the compounds described herein are known in the art and include, for example, those described in R. Larock, Comprehensive Organic Transformations (1989); T. W. Greene and P. G. M. Wuts, Protective Groups in Organic Synthesis, 2d. Ed. (1991); L. Fieser and M. Fieser, Fieser and Fieser's Reagents for Organic Synthesis (1994); and L. Paquette, ed., Encyclopedia of Reagents for Organic Synthesis (1995).). In general, synthesis and measurements of ULK1 inhibitory activity of the compounds described herein was performed using method analogous to those previously described in PCT International Application No. PCT/US2015/046777 which is hereby incorporated by reference in its entirety.
row,SMILES,IC50 [nM]
1,N[C@@H](CC(=O)O)C(=O)N1CCc2cc(Nc3ncc(C(F)(F)F)c(NC4CC4)n3)ccc2C1 (racemic) [Compound A66],< 1
2,O=C(O)C[C@H](NC(=O)OCc1ccccc1)C(=O)N1CCc2cc(Nc3ncc(C(F)(F)F)c(NC4CC4)n3)ccc2C1 (racemic) [Compound A67],< 1
3,"CNC(=O)c1ccccc1Nc1nc(Nc2ccc3c(c2)CCN(C(=O)[C@@H](N)CO)C3)ncc1Br (racemic) [Compound A139, 2-{2-[2-(2-Amino-3-hydroxy-propionyl)-1,2,3,4-tetrahydro-isoquinolin-6-ylamino]-5-bromo-pyrimidin-4-ylamino}-N-methyl-benzamide]",> 10
4,"CNC(=O)c1ccccc1Nc1nc(Nc2ccc3c(c2)CN(C(=O)[C@@H](N)CO)CC3)ncc1Br (racemic) [Compound A154, 2-{2-[2-(2-Amino-3-hydroxy-propionyl)-1,2,3,4-tetrahydro-isoquinolin-7-ylamino]-5-bromo-pyrimidin-4-ylamino}-N-methyl-benzamide]",> 10
5,N[C@H](CO)C(=O)N1CCc2cc(Nc3ncc(C(F)(F)F)c(NC4CC4)n3)ccc2C1 (stereo in doubt) [Compound A48],< 1
6,N[C@@H](CO)C(=O)N1CCc2cc(Nc3ncc(C(F)(F)F)c(NC4CC4)n3)ccc2C1 (stereo in doubt) [Compound A57],1 to 10
7,CN1CCc2cc(Nc3ncc(C(F)(F)F)c(NC4CC4)n3)ccc2C1 [Compound A1],< 1
8,O=C(N1CCOCC1)N1CCc2cc(Nc3ncc(C(F)(F)F)c(NC4CC4)n3)ccc2C1 [Compound A2],1 to 10
9,FC(F)(F)c1cnc(Nc2ccc3c(c2)CCN(Cc2ccncc2)C3)nc1NC1CC1 [Compound A3],< 1
10,COC(=O)N1CCc2cc(Nc3ncc(C(F)(F)F)c(NC4CC4)n3)ccc2C1 [Compound A4],1 to 10
11,FC(F)(F)c1cnc(Nc2ccc3c(c2)CCN(CCN2CCOCC2)C3)nc1NC1CC1 [Compound A5],< 1
12,CCNC(=O)N1CCc2cc(Nc3ncc(C(F)(F)F)c(NC4CC4)n3)ccc2C1 [Compound A6],1 to 10
13,O=C(O)CCN1CCc2cc(Nc3ncc(C(F)(F)F)c(NC4CC4)n3)ccc2C1 [Compound A7],< 1
14,FC(F)(F)c1cnc(Nc2ccc3c(c2)CCN(Cc2ccccc2)C3)nc1NC1CC1 [Compound A8],< 1
15,FC(F)(F)c1cnc(Nc2ccc3c(c2)CCN(C2COC2)C3)nc1NC1CC1 [Compound A9],1 to 10
16,CCN(CC)C(=O)N1CCc2cc(Nc3ncc(C(F)(F)F)c(NC4CC4)n3)ccc2C1 [Compound A10],1 to 10
17,CSCCN1CCc2cc(Nc3ncc(C(F)(F)F)c(NC4CC4)n3)ccc2C1 [Compound A11],< 1
18,CS(=O)(=O)N1CCc2cc(Nc3ncc(C(F)(F)F)c(NC4CC4)n3)ccc2C1 [Compound A12],1 to 10
19,OCC(O)CN1CCc2cc(Nc3ncc(C(F)(F)F)c(NC4CC4)n3)ccc2C1 (stereo not drawn) [Compound A13],> 10
20,NC(=O)N1CCc2cc(Nc3ncc(C(F)(F)F)c(NC4CC4)n3)ccc2C1 [Compound A14],1 to 10

row,SMILES,IC50 [nM]
1,CC(C)(C)OC(=O)N1CCc2ccc(Nc3ncc(C(F)(F)F)c(NC4CC4)n3)cc2C1 [Compound A15],1 to 10
2,FC(F)(F)c1cnc(Nc2ccc3c(c2)CNCC3)nc1NC1CC1 [Compound A16],< 1
3,FC(F)(F)c1cnc(Nc2ccc3c(c2)CCN(CC2OCCO2)C3)nc1NC1CC1 [Compound A17],< 1
4,CC(C)(O)CN1CCc2cc(Nc3ncc(C(F)(F)F)c(NC4CC4)n3)ccc2C1 [Compound A18],< 1
5,O=C(O)CCC(=O)N1CCc2cc(Nc3ncc(C(F)(F)F)c(NC4CC4)n3)ccc2C1 [Compound A20],< 1
6,CC(C)(C)OC(=O)N1CCc2cc(Nc3ncc([N+](=O)O)c(NC4CC4)n3)ccc2C1 [Compound A21],> 10
7,CC(C)(C)OC(=O)N1CCc2cc(Nc3ncc(N)c(NC4CC4)n3)ccc2C1 [Compound A22],> 10
8,FC(F)(F)c1cnc(Nc2ccc3c(c2)CCN(CCS)C3)nc1NC1CC1 [Compound A23],< 1
9,CNC(=S)Nc1cnc(Nc2ccc3c(c2)CCNC3)nc1NC1CC1 [Compound A24],> 10
10,NS(=O)(=O)N1CCc2cc(Nc3ncc(C(F)(F)F)c(NC4CC4)n3)ccc2C1 [Compound A25],< 1
11,NCC(=O)Nc1cnc(Nc2ccc3c(c2)CCNC3)nc1NC1CC1 [Compound A26],> 10
12,NCC(=O)N1CCc2cc(Nc3ncc(C(F)(F)F)c(NC4CC4)n3)ccc2C1 [Compound A27],< 1
13,CCOC(=O)c1cnc(Nc2ccc3c(c2)CCN(C(=O)OC(C)(C)C)C3)nc1NC1CC1 [Compound A28],> 10
14,CC(C)(C)OC(=O)NCCC(=O)N1CCc2cc(Nc3ncc(C(F)(F)F)c(NC4CC4)n3)ccc2C1 [Compound A29],< 1
15,CC(C)(C)OC(=O)N1CCc2cc(Nc3ncc(C(=O)O)c(NC4CC4)n3)ccc2C1 [Compound A30],> 10
16,NCCC(=O)N1CCc2cc(Nc3ncc(C(F)(F)F)c(NC4CC4)n3)ccc2C1 [Compound A31],< 1
17,O=C(OCCO)c1cnc(Nc2ccc3c(c2)CCNC3)nc1NC1CC1 [Compound A33],> 10
18,NCCN1CCc2cc(Nc3ncc(C(F)(F)F)c(NC4CC4)n3)ccc2C1 [Compound A34],< 1
19,CNCC(=O)N1CCc2cc(Nc3ncc(C(F)(F)F)c(NC4CC4)n3)ccc2C1 [Compound A35],< 1
20,O=C(NCCO)c1cnc(Nc2ccc3c(c2)CCNC3)nc1NC1CC1 [Compound A36],> 10

row,SMILES,IC50 [nM]
1,CN1CCN(C(=O)N2CCc3cc(Nc4ncc(C(F)(F)F)c(NC5CC5)n4)ccc3C2)CC1 [Compound A37],< 1
2,O=C(NCC(F)(F)F)c1cnc(Nc2ccc3c(c2)CCNC3)nc1NC1CC1 [Compound A38],> 10
3,NC(=O)CN1CCc2cc(Nc3ncc(C(F)(F)F)c(NC4CC4)n3)ccc2C1 [Compound A39],> 10
4,FC(F)(F)c1cnc(Nc2ccc3c(c2)CCN(CC2CCCN2)C3)nc1NC1CC1 (stereo not drawn) [Compound A40],1 to 10
5,FC(F)(F)c1cnc(Nc2ccc3c(c2)CCN(CC2CNC2)C3)nc1NC1CC1 [Compound A41],< 1
6,FC(F)(F)c1cnc(Nc2ccc3c(c2)CCN(Cc2cc[nH]c2)C3)nc1NC1CC1 [Compound A42],< 1
7,FC(F)(F)c1cnc(Nc2ccc3c(c2)CCN(CC2CCNC2)C3)nc1NC1CC1 (stereo not drawn) [Compound A43],< 1
8,CN(C)CCN1CCc2cc(Nc3ncc(C(F)(F)F)c(NC4CC4)n3)ccc2C1 [Compound A44],< 1
9,N#CCN1CCc2cc(Nc3ncc(C(F)(F)F)c(NC4CC4)n3)ccc2C1 [Compound A45],< 1
10,FC(F)(F)c1cnc(Nc2ccc3c(c2)CCN(Cc2ccco2)C3)nc1NC1CC1 [Compound A46],< 1
11,FC(F)(F)c1cnc(Nc2ccc3c(c2)CCN(Cc2cncnc2)C3)nc1NC1CC1 [Compound A49],< 1
12,COCCN1CCc2cc(Nc3ncc(C(F)(F)F)c(NC4CC4)n3)ccc2C1 [Compound A50],< 1
13,FC(F)(F)c1cnc(Nc2ccc3c(c2)CCN(C2CNC2)C3)nc1NC1CC1 [Compound A52],< 1
14,OCCN1CCc2cc(Nc3ncc(C(F)(F)F)c(NC4CC4)n3)ccc2C1 [Compound A53],< 1
15,CC(C)(C)OC(=O)C1Cc2ccc(Nc3ncc(C(F)(F)F)c(NC4CC4)n3)cc2C1 (stereo not drawn) [Compound A54],1 to 10
16,CC(=O)CCN1CCc2cc(Nc3ncc(C(F)(F)F)c(NC4CC4)n3)ccc2C1 [Compound A56],< 1
17,NC(=O)CCN1CCc2cc(Nc3ncc(C(F)(F)F)c(NC4CC4)n3)ccc2C1 [Compound A58],< 1
18,Nc1cnc(Nc2ccc3c(c2)CCNC3)nc1NC1CC1 [Compound A59],> 10
19,CCN1CCc2cc(Nc3ncc(C(F)(F)F)c(NC4CC4)n3)ccc2C1 [Compound A60],1 to 10
20,CN1CCc2cc(Nc3ncc(N)c(NC4CC4)n3)ccc2C1 [Compound A61],> 10
